The values that follow come from article PMC4254748 (Science (New York, N.Y.), 2014).

The test system of test [1] is neo1Δ/NEO1 strain. Kind of test: Growth of the neo1Δ/NEO1 strain. To be noted: OD600 for 24 hours. The class given is cell-based, yeast.
Test [2] concerns yeast heterozygous and homozygous deletion strains. The experiment in a line: HIP/HOP chemogenomic fitness profiling. The class given is cell-based. To be noted: for Chemogenomic response signature induced: HIPHOP profile.
The test system of test [3] is immortalized human leukemia cells. The experiment in a line: Mitochondrial effects in immortalized human leukemia cells. The test is classed as cell-based. To be noted: fig. S13.

Each structure is given as a SMILES string.

Regarding `CC/C(=C(\c1ccccc1)c1ccc(OCCN(C)C)cc1)c1ccccc1` [Tamoxifen], in test [1], the “Induction of NEO1 haploinsufficiency” value was “Tamoxifen-induced NEO1 haploinsufficiency”.

Regarding `CO/C1=C\C(C)=C\[C@@H](C)[C@@H](O)[C@@H](C)C/C(C)=C/C=C/[C@H](OC)[C@@H]([C@@H](C)[C@@H](O)[C@H](C)[C@@]2(O)C[C@@H](O)[C@H](C)[C@@H](C(C)C)O2)OC1=O` [bafilomycin A], in test [1], the “Effect on tamoxifen-induced NEO1 haploinsufficiency” value was “rescued”.

`CCCCNC(=O)n1c(NC(=O)OC)nc2ccccc21` [benomyl]: the “Chemogenomic response signature induced” value in test [2] was “induced a signature containing tubulin biogenesis and SWR1 complex genes”.

For the compound `OC(Cn1cncn1)(Cn1cncn1)c1ccc(F)cc1F` [fluconazole], the “HIP hit / strain with largest fitness defect” value in test [2] (HIP profile) is “Erg11Δ/ERG11 strain represents a “hit””.

On to `COC(=O)Nc1nc2ccc(C(=O)c3cccs3)cc2[nH]1` [nocodazole], for which the “Chemogenomic response signature induced” value in test [2] was “induced a signature containing tubulin biogenesis and SWR1 complex genes”.

As to `Oc1ccc(Cl)cc1Cc1cc(Cl)cc(Cc2cc(Cl)ccc2O)c1O` [trichlorophene], in test [3], the “Generation of mitochondrial reactive oxygen species” value is given as “increased” and the Reserve oxygen capacity entry is “reduction”. Further, the “Chemogenomic response signature induced” value in test [2] was “induced mitochondrial stress”.
